Like-named read-outs stand apart in the source and are kept apart here. Marks after values point to notes of the source that are not given here.
Tests used:
[1] = system: patients with atrial fibrillation
Description: The PETRO-Ex study was conducted in 52 centers in the United States, Denmark, The Netherlands, and Sweden.
PETRO-Ex began while the PETRO study was ongoing and investigators were initially kept blinded to patient treatment group until PETRO was completed. Unblinding investigators to patient treatment was possible thereafter.
Data were summarized descriptively; no hypothesis was to be tested. Events were analyzed on the basis of the treatment at onset. Incidences were reported as of patients with events as well as normalized to 100 patient-years on the respective treatment.
Patients who were down titrated to 50 mg q.d. based on a glomerular filtration rate≦50 mL/min during PETRO were excluded from the long-term trial; patients down-titrated in other dose levels remained on the q.d. treatment at that dose.
The total exposure reflects both trials, PETRO and PETRO-Ex, together.

[2] = system: patients with chronic atrial fibrillation; assay: PETRO phase 2 12-week dose finding study; assay type: in vivo, human
Description: Primary endpoints were bleeding events and changes in D-dimer. […] Minor bleeding was dose related.

[3] = system: cytochrome P-450 drug metabolizing enzymes; assay: Cytochrome P-450 interaction; assay type: in vitro ADME
Description: Peak levels are seen within 2-3 hours of oral administration. […] Steady-state is reached within 2-3 days with a twice daily regimen. […] The remainder undergoes conjugation with glucuronic acid to form acylglucuronides which are excreted primarily in the bile.

[4] = PETRO-Ex, including bleeding and thrombotic events

With `CCCCCCOC(=O)NC(=N)c1ccc(NCc2nc3cc(C(=O)N(CCC(=O)OCC)c4ccccn4)ccc3n2C)cc1` [Dabigatran etexilate, 1-methyl-2-[N-[4-(N-n-hexyloxycarbonylamidino)phenyl]aminomethyl]benzimidazol-5-ylcarboxylic acid-N-(2-pyridyl)-N-(2-ethoxycarbonylethyl)amides] the “Major Bleeds without aspirin, number” value ([1]; 300 mg b.i.d.) was 4, the “Major Bleeds without aspirin, rate” value ([1]; 300 mg b.i.d.) was 6.3 per 100 patient-years and the “Major Bleeds, number” value ([1]; 300 mg b.i.d.) was 10. For the same compound, the “Major Bleeds, rate” value ([1]; 300 mg b.i.d.) was 12.2 per 100 patient-years, the Major bleeding events ([1]; 300 mg b.i.d.) was 12.2 % per year and the “Other MACE, number” value ([1]; 300 mg b.i.d.) was 1. For the same compound, the “Stroke and Systemic Thromboembolism, number” value ([1]; 300 mg b.i.d.) was 1, the “TIA, number” value ([1]; 300 mg b.i.d.) was 0 and the bleeding events ([1]; 300 mg b.i.d.) was “more than 12 per 100 years”. For the same compound, the “ALT or AST >2xULN, number” value ([1]; 300 mg q.d.) was 3, the “ALT or AST >2xULN, rate” value ([1]; 300 mg q.d.) was 1.5 per 100 patient-years and the “ALT or AST >3xULN and Bili >2xULN within 30 days, number” value ([1]; 300 mg q.d.) was 1. The “ALT or AST >3xULN and Bili >2xULN within 30 days, rate” value ([1]; 300 mg q.d.) was 0.5 per 100 patient-years, the “ALT or AST >3xULN, number” value ([1]; 300 mg q.d.) was 3 and the “ALT or AST >3xULN, rate” value ([1]; 300 mg q.d.) was 1.5 per 100 patient-years. The “ALT or AST >5xULN, number” value ([1]; 300 mg q.d.) was 3, the “ALT or AST >5xULN, rate” value ([1]; 300 mg q.d.) was 1.5 per 100 patient-years and the “Adverse Events leading to premature discontinuation, number” value ([1]; 300 mg q.d.) was 19. The “Adverse Events leading to premature discontinuation, rate” value ([1]; 300 mg q.d.) was 9.6 per 100 patient-years, the “MI, number” value ([1]; 300 mg q.d.) was 1 and the “Major Bleeds with aspirin, number” value ([1]; 300 mg q.d.) was 2. The “Major Bleeds with aspirin, rate” value ([1]; 300 mg q.d.) was 3.6 per 100 patient-years, the “Major Bleeds without aspirin, number” value ([1]; 300 mg q.d.) was 3 and the “Major Bleeds without aspirin, rate” value ([1]; 300 mg q.d.) was 2.1 per 100 patient-years. For the same compound, the “Major Bleeds, number” value ([1]; 300 mg q.d.) was 5, the “Major Bleeds, rate” value ([1]; 300 mg q.d.) was 2.5 per 100 patient-years and the Major bleeding events ([1]; 300 mg q.d.) was 2.5 % per year. The “Other MACE, number” value ([1]; 300 mg q.d.) was 1, the “Stroke and Systemic Thromboembolism, number” value ([1]; 300 mg q.d.) was 5 and the “TIA, number” value ([1]; 300 mg q.d.) was 0. The “fatal major bleeds, number” value ([1]; 300 mg q.d.) was 1, the tolerability ([1]; 300 mg twice daily) was “not tolerable” and the “Serious adverse events: cardiac disorders” value ([1]; PETRO-Ex) was 22%. The “Serious adverse events: cardiac disorders, pts” value ([1]; PETRO-Ex) was 80, the “Serious adverse events: gastrointestinal disorders” value ([1]; PETRO-Ex) was 7.8% and the “Serious adverse events: gastrointestinal disorders, pts” value ([1]; PETRO-Ex) was 28. For the same compound, the “Serious adverse events: infections” value ([1]; PETRO-Ex) was 9.4%, the “Serious adverse events: infections, pts” value ([1]; PETRO-Ex) was 34 and the “Serious adverse events: nervous system disorders” value ([1]; PETRO-Ex) was 9.1%. For the same compound, the “Serious adverse events: nervous system disorders, pts” value ([1]; PETRO-Ex) was 33, the “Major bleeding events (per 100 patient years)” value ([1]; PETRO-Ex, 150 mg b.i.d., without concomitant aspirin) was 3.2%* and the “LFT abnormalities >3 x-ULN (per 100 patient years)” value ([1]; PETRO-Ex, All doses) was 1.7%. The Serious adverse events [1, 4] was 51%, the “Serious adverse events, patients” value [1, 4] was 184 and the “ALT or AST >2xULN, number” value ([1]; Total (all doses)) was 30. For the same compound, the “ALT or AST >2xULN, rate” value ([1]; Total (all doses)) was 2.9 per 100 patient-years, the “ALT or AST >3xULN and Bili >2xULN within 30 days, number” value ([1]; Total (all doses)) was 4 and the “ALT or AST >3xULN and Bili >2xULN within 30 days, rate” value ([1]; Total (all doses)) was 0.4 per 100 patient-years. For the same compound, the “ALT or AST >3xULN, number” value ([1]; Total (all doses)) was 18, the “ALT or AST >3xULN, rate” value ([1]; Total (all doses)) was 1.7 per 100 patient-years and the “ALT or AST >5xULN, number” value ([1]; Total (all doses)) was 11. The “ALT or AST >5xULN, rate” value ([1]; Total (all doses)) was 1.1 per 100 patient-years, the “Adverse Events leading to premature discontinuation, number” value ([1]; Total (all doses)) was 120 and the “Adverse Events leading to premature discontinuation, rate” value ([1]; Total (all doses)) was 11.5 per 100 patient-years. For the same compound, the “MI, number” value ([1]; Total (all doses)) was 7, the “Major Bleeds with aspirin, number” value ([1]; Total (all doses)) was 19 and the “Major Bleeds with aspirin, rate” value ([1]; Total (all doses)) was 8.5 per 100 patient-years. The “Major Bleeds without aspirin, number” value ([1]; Total (all doses)) was 26, the “Major Bleeds without aspirin, rate” value ([1]; Total (all doses)) was 3.2 per 100 patient-years and the “Major Bleeds, number” value ([1]; Total (all doses)) was 44. The “Major Bleeds, rate” value ([1]; Total (all doses)) was 4.2 per 100 patient-years, the “Other MACE, number” value ([1]; Total (all doses)) was 11 and the “Stroke and Systemic Thromboembolism, number” value ([1]; Total (all doses)) was 20. The “TIA, number” value ([1]; Total (all doses)) was 1, the “ALT or AST >3xULN and Bili >2xULN within 30 days, number” value ([1]; Total (all doses), listed as dabigatran etexilate) was “four” and the “concomitant bilirubin elevation >2xULN within 30 days of transaminase elevations >3xULN” value ([1]; all doses) was 0.4 % per year. For the same compound, the “elevated liver transaminases, AST or ALT >3xULN” value ([1]; all doses) was 1.7 % per year, the “fatal intracranial bleeds, number” value ([1]; all doses) was “Three” and the “fatal major bleeds, number” value ([1]; all doses) was “Five”. The “transaminases (AST or ALT) >5xULN” value ([1]; all doses) was 1.1 % per year, the “bleeding event risk ratio” value ([1]; concomitant aspirin vs. none) was 2.70 and the major bleed rate ([1]; doses ≦150 mg/day (150 mg q.d. combined with 50 mg b.i.d.)) was 3.7 % per year. The bleeding event rate ([1]; on concomitant aspirin) was 8.5 % per year, the bleeding event rate ([1]; without concomitant aspirin) was 3.2 % per year and the Major bleeding events ([2]; 300 mg b.i.d. plus ASA groups) was 6%. The “major bleeding events, number” value ([2]; 300 mg b.i.d. plus ASA groups) was “Four”, the Minor bleeding ([2]; 50, 150, 300 mg b.i.d.) was “dose related” and the “Elevated transaminases >3× upper limit of normal (ULN)” value ([2]; all dabigatran etexilate-treated patients) was 0.9%. For the same compound, the “Elevated transaminases >3× upper limit of normal (ULN), number of patients” value ([2]; of 432 dabigatran etexilate-treated patients) was 4 and the “metabolism by, induction or inhibition of cytochrome P-450 drug metabolizing enzymes” value [3] was “not metabolized by and does not induce or inhibit”.

Source: patent US20120282187A1 (BOEHRINGER INGELHEIM INTERNATIONAL GMBH, priority 2008, published 2012)
